Consider 2 compounds from patent US11046647B2, “Activators of the unfolded protein response” (The Board of Trustees of the University of Illinois, priority 2018, dated 2021).

One series has as its system T47D, TYS and TDG cells. The experiment in a line: MTS proliferation assay (4 days), T47D, TYS and TDG. The class given is cell-based, human. Here is the method: FIG. 30 compares the ability of BHPI and test compounds to inhibit proliferation of T47D, TYS and TDG cells. T47D cells were in medium containing 10 FBS (which contains estrogen), TYS-4 and TDG-1 cells were in medium containing 10% cd-FBS (estrogen depleted). Cells are plated at 2,000 cells/well in 96 well plates. After 24 hours in medium containing FBS or charcoal-dextran treated FBS (depleted of endogenous estrogens), the indicated concentration of each compound (in DMSO at 1/1000th of the volume of medium) was added. After 2 days the medium was changed, and the compounds were added again. After 2 additional days (4 days total) MTS assays are used to evaluate cell proliferation. (n=6 ±S.E.M.).

The subject of another series is parental T47D cells. Nature of the series: MTS growth assay, parental T47D cells. The class given is cell-based, human. As to conditions: 100 nM and 1 μM; 4 days. The protocol:
(§1) ERα containing T47D human breast cancer cells able to survive in 1 μM BHPI were selected by clonal outgrowth. The effect of 100 nM and 1 μM BHPI and (−)-105 on growth of the (BHPI-sensitive) parental T47D cells and partially BHPI-resistant T47D clones 1,3,8, and 11 was evaluated. 4,000 cells/well were plated. Cell number was determined by MTS assay from a standard curve of absorbance versus cell number. […] Thus, in 4 days (−)-105 killed some, but not all, of the resistant cells.

The subject of series [1] is partially BHPI-resistant T47D clones 1,3,8, and 11. The experiment in a line: MTS growth assay, partially BHPI-resistant T47D clones. Type of series: cell-based, human. The conditions noted are these: 100 nM and 1 μM; 4 days. Here is the method: as §1
In general terms: Tetrazolium assays rely on reduction of a dye to a coloured formazan, in cell work by metabolically active cells.

The subject of series [2] is sp-XBP1 mRNA (unfolded protein response). The experiment in a line: Induction of spliced XBP-1 mRNA (qRT-PCR), T47D-luciferase cells. Type of series: cell-based, human. The conditions noted are these: 100 nM. Here is the method:
ERα positive T47D-luciferase human breast cancer cells, were maintained for the indicated times in vehicle (Ctl, Control), 100 nM BHPI or 100 nM (−)-105. At the indicated times RNA was isolated and levels of sp-XBP1 mRNA quantitated by qRT-PCR. (n=3 ±SEM).
A general note: Real-time PCR tracks product formation cycle by cycle.

The next series has as its system MCF-7 tumors. The experiment in a line: MCF-7 orthotopic tumor model. Type of series: in vivo, mouse. Here is the method: FIG. 39. SERK-F6 eradicates wild-type ERα tumors via hyperactivation of aUPR. a, MCF-7 orthotopic tumors were established in Nu/J ovariectomized mice supplemented with a 60 day E2 pellet (0.36 mg) and grown to ˜400 mm^3 (28 days to establish), randomized, then treated with vehicle daily (n=3), vehicle weekly (n=3), fulv. weekly (5 mg/mouse, s.c., n=6), SERK-F6 daily (10 or 40 mg/kg p.o.). Vehicle arms were averaged. p values: *: p≤0.05, **: p≤0.01, ***: p≤0.001, ****: p≤0.0001. Tumor images were taken at the end of the study (day 21) and are representative of all tumors (n=6). b-e, MCF-7 cells were orthotopically bi-laterally grafted and tumors were grown until total tumor burden was ˜400 mm^3 prior to daily treatment with vehicle or SERK-F6 (40 mg/kg p.o.). Mice (n=5 per arm) were sacrificed after 3 days (b,c) and 7 days (d,e) and tumors harvested. […] Vinculin (Vin) was used as a loading control. […] Error bars represent S.E.M.
To probe the efficacy of SERK-F6 for killing ERα positive tumors, large MCF-7 tumors were grown and then intervened with therapy. […] The mice were then sacrificed prior to complete tumor eradication.

Series [3] concerns MYS and MDG cells (MCF-7 with Y537S or D538G ERα) tumors. Nature of the series: MYS-luc / MDG-luc orthotopic tumors. As to conditions: daily dosing. The class given is in vivo, mouse. The text has this:
FIG. 41. […]
FIG. 43. SERK-F6-mediated eradication of MYS/MDG tumors is dependent on quantitative cell killing. a-b, MYS-luc. orthotopic tumors were established in NSG ovariectomized mice (no E2 pellet, ˜45 days to establish) and dosed daily as indicated (n=5-6), b, Treatment of MYS-luc, tumors were stopped after 21 daily doses of SERK-F6 and mice tumor burden was tracked via bioluminescence. […]

Take `O=C1Nc2c(C(F)(F)F)cccc2C1(c1ccc(O)cc1)c1ccc(OC(F)(F)F)cc1` (racemic) [(±)-105, 3-(4-hydroxyphenyl)-3-(4-(trifluoromethoxy)phenyl)-7-(trifluoromethyl)indolin-2-one]: in the series with T47D, TYS and TDG cells, the “effectiveness in killing compared with BHPI” value is recorded as “more effective than BHPI”.

Consider `O=C1Nc2c(C(F)(F)F)cccc2C1(c1ccc(O)cc1)c1ccc(OC(F)(F)F)cc1` (single isomer, unassigned; (-)) [(−)-105, 3-(4-hydroxyphenyl)-3-(4-(trifluoromethoxy)phenyl)-7-(trifluoromethyl)indolin-2-one], for which the results for the “effect on growth / cell number” value (with parental T47D cells; in series [1]) were “killed all the T47D cells” and “completely blocked the growth of the resistant clones”, respectively. Also, in series [2], the “UPR activation / induction of sp-XBP1” value was “much stronger UPR hyper-activator and inducer of sp-XBP1 than BHPI”. The “UPR markers in tumors (western blot)” value in the series on MCF-7 tumors (40 mg/kg p.o., 3 and 7 days) is “increases in P-PERK and P-eiF2alpha levels”. For the same compound, the “murine weight during the study” value in the series with MCF-7 tumors (daily treatment) is reported as “did not lead to any change in murine weight”. Besides, the tumor response result in the series with MCF-7 tumors (large established MCF-7 tumors, SERK-F6 10 or 40 mg/kg p.o. daily, fulv. 5 mg/mouse s.c. weekly) is listed as “dramatic tumor regressions”; in series [3] it was “Dramatic tumor regressions were observed”.
